In US11891365B2, “3-alkyl-4-amido-bicyclic [4,5,0] hydroxamic acids as HDAC inhibitors” (Valo Health, Inc., priority 2015, dated 2024):

Biological target: T1, Full length human recombinant HDAC6 protein (Homo sapiens, UniProt Q9UBN7)
T1 sequence (Q9UBN7 1-1215): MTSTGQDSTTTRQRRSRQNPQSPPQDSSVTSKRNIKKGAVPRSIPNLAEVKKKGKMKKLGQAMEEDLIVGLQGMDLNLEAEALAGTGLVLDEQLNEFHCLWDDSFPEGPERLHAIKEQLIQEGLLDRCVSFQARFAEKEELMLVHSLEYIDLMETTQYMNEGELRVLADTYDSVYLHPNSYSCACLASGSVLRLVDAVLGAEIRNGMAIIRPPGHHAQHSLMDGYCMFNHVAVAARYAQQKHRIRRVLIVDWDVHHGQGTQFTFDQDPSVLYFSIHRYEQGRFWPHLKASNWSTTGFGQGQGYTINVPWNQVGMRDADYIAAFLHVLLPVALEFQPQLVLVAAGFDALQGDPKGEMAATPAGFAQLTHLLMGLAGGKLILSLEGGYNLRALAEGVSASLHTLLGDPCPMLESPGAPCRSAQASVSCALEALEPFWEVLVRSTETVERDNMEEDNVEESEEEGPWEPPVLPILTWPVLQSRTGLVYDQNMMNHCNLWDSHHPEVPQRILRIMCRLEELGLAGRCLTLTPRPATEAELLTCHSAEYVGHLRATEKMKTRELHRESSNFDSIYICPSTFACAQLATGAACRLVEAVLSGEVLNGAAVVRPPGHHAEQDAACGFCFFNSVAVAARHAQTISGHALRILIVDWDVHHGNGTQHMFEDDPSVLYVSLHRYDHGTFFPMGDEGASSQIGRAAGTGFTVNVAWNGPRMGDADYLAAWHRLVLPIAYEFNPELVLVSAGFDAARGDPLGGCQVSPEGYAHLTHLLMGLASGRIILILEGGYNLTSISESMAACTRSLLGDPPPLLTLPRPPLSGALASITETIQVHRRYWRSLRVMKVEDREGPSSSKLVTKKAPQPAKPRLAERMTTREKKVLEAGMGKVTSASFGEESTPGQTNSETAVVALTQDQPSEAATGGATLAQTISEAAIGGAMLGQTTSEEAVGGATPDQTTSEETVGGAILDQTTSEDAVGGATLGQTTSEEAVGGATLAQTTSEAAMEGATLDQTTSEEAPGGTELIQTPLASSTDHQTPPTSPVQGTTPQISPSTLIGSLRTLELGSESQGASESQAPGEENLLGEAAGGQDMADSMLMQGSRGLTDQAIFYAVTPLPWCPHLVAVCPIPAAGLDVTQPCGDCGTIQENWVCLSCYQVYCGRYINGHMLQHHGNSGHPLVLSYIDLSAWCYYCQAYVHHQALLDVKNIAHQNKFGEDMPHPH
Experiment: In vitro histone deacetylase assay: enzymatic HDAC6 electrophoretic mobility shift assay
Format: biochemical
Conditions: 1 nM enzyme, 2 μM peptide substrate RHKK(Ac)-NH2, 25° C., 12 concentrations; read-out: Inhibitory Concentration (IC50) Values against HDAC6, Activity Range

IC50 [µM] | Compound
≤ 0.1 | COC1(C(=O)N2Cc3ccc(C(=O)NO)cc3OC[C@@H]2C)CCCC1 [(S)-N-hydroxy-4-(1-methoxycyclopentane-1-carbonyl)-3-methyl-2,3,4,5-tetrahydrobenzo[f][1,4]oxazepine-8-carboxamide]
≤ 0.1 | COC1(C(=O)N2Cc3ccc(C(=O)NO)cc3OC[C@@H]2C)CC1 [(S)-N-hydroxy-4-(1-methoxycyclopropane-1-carbonyl)-3-methyl-2,3,4,5-tetrahydrobenzo[f][1,4]oxazepine-8-carboxamide]
≤ 0.1 | CC1(C(=O)N2Cc3ccc(C(=O)NO)cc3O[C@@H](c3ccccc3)C2)CCC1 [(S)-N-hydroxy-4-(1-methylcyclobutane-1-carbonyl)-2-phenyl-2,3,4,5-tetrahydrobenzo[f][1,4]oxazepine-8-carboxamide]
≤ 0.1 | COC(C)(C)C(=O)N1Cc2ccc(C(=O)NO)cc2OC[C@@H]1C [(S)-N-hydroxy-4-(2-methoxy-2-methylpropanoyl)-3-methyl-2,3,4,5-tetrahydrobenzo[f][1,4]oxazepine-8-carboxamide]
0.1 to 0.5 | C[C@H](C(=O)N1CCOc2cc(C(=O)NO)ccc2C1)c1ccccc1 [(S)-N-hydroxy-4-(2-phenylpropanoyl)-2,3,4,5-tetrahydrobenzo[f][1,4]oxazepine-8-carboxamide]
≤ 0.1 | COCC1(C(=O)N2Cc3ccc(C(=O)NO)cc3OC[C@@H]2C)COC1 [(S)-N-hydroxy-4-(3-(methoxymethyl)oxetane-3-carbonyl)-3-methyl-2,3,4,5-tetrahydrobenzo[f][1,4]oxazepine-8-carboxamide]
≤ 0.1 | COCC1(C(=O)N2CCOc3cc(C(=O)NO)ccc3[C@@H]2C)COC1 [(S)-N-hydroxy-4-(3-(methoxymethyl)oxetane-3-carbonyl)-5-methyl-2,3,4,5-tetrahydrobenzo[f][1,4]oxazepine-8-carboxamide]
≤ 0.1 | C[C@H]1COc2cc(C(=O)NO)ccc2CN1C(=O)C(C)(C)CO [(S)-N-hydroxy-4-(3-hydroxy-2,2-dimethylpropanoyl)-3-methyl-2,3,4,5-tetrahydrobenzo[f][1,4]oxazepine-8-carboxamide]
≤ 0.1 | C[C@H]1COc2cc(C(=O)NO)ccc2CN1C(=O)CC(C)(C)O [(S)-N-hydroxy-4-(3-hydroxy-3-methylbutanoyl)-3-methyl-2,3,4,5-tetrahydrobenzo[f][1,4]oxazepine-8-carboxamide]
≤ 0.1 | COC(C)(C)CC(=O)N1Cc2ccc(C(=O)NO)cc2OC[C@@H]1C [(S)-N-hydroxy-4-(3-methoxy-3-methylbutanoyl)-3-methyl-2,3,4,5-tetrahydrobenzo[f][1,4]oxazepine-8-carboxamide]
≤ 0.1 | COCCC(=O)N1Cc2ccc(C(=O)NO)cc2OC[C@@H]1C [(S)-N-hydroxy-4-(3-methoxypropanoyl)-3-methyl-2,3,4,5-tetrahydrobenzo[f][1,4]oxazepine-8-carboxamide]
≤ 0.1 | COCC1(C(=O)N2Cc3ccc(C(=O)NO)cc3OC[C@@H]2C)CCOCC1 [(S)-N-hydroxy-4-(4-(methoxymethyl)tetrahydro-2H-pyran-4-carbonyl)-3-methyl-2,3,4,5-tetrahydrobenzo[f][1,4]oxazepine-8-carboxamide]
≤ 0.1 | COCC1(C(=O)N2CCOc3cc(C(=O)NO)ccc3[C@@H]2C)CCOCC1 [(S)-N-hydroxy-4-(4-(methoxymethyl)tetrahydro-2H-pyran-4-carbonyl)-5-methyl-2,3,4,5-tetrahydrobenzo[f][1,4]oxazepine-8-carboxamide]
≤ 0.1 | COC1(C(=O)N2Cc3ccc(C(=O)NO)cc3OC[C@@H]2C)CCOCC1 [(S)-N-hydroxy-4-(4-methoxytetrahydro-2H-pyran-4-carbonyl)-3-methyl-2,3,4,5-tetrahydrobenzo[f][1,4]oxazepine-8-carboxamide]
≤ 0.1 | CC(C)[C@@H]1C[C@@H](C(=O)N2Cc3ccc(C(=O)NO)cc3OC[C@@H]2C)CCO1 [(S)-N-hydroxy-4-((2S,4S)-2-isopropyltetrahydro-2H-pyran-4-carbonyl)-3-methyl-2,3,4,5-tetrahydrobenzo[f][1,4]oxazepine-8-carboxamide]
≤ 0.1 | O=C(NO)c1ccc2c(c1)OCCN(C(=O)[C@H]1CCCOC1)C2 [(S)-N-hydroxy-4-(tetrahydro-2H-pyran-3-carbonyl)-2,3,4,5-tetrahydrobenzo[f][1,4]oxazepine-8-carboxamide]

IC50 [µM] | Compound
≤ 0.1 | O=C(NO)c1ccc2c(c1)OCCN(C(=O)[C@H]1CCOC1)C2 [(S)-N-hydroxy-4-(tetrahydrofuran-3-carbonyl)-2,3,4,5-tetrahydrobenzo[f][1,4]oxazepine-8-carboxamide]
≤ 0.1 | CC(C)C(=O)N1Cc2ccc(C(=O)NO)cc2OC[C@@H]1C [(S)-N-hydroxy-4-isobutyryl-3-methyl-2,3,4,5-tetrahydrobenzo[f][1,4]oxazepine-8-carboxamide]
> 0.5 | CC(C)[C@H]1c2ccc(C(=O)NO)cc2OCCN1C(=O)C1COC1 [(S)-N-hydroxy-5-isopropyl-4-(oxetane-3-carbonyl)-2,3,4,5-tetrahydrobenzo[f][1,4]oxazepine-8-carboxamide]
> 0.5 | CC(C)[C@H]1c2ccc(C(=O)NO)cc2OCCN1C(=O)C1CCOCC1 [(S)-N-hydroxy-5-isopropyl-4-(tetrahydro-2H-pyran-4-carbonyl)-2,3,4,5-tetrahydrobenzo[f][1,4]oxazepine-8-carboxamide]
0.1 to 0.5 | C[C@H]1c2cc(C(=O)NO)ccc2OCCN1C(=O)C1(C)CCC1 [(S)-N-hydroxy-5-methyl-4-(1-methylcyclobutane-1-carbonyl)-2,3,4,5-tetrahydrobenzo[f][1,4]oxazepine-7-carboxamide]
≤ 0.1 | C[C@H]1c2ccc(C(=O)NO)cc2OCCN1C(=O)C1(C)CCC1 [(S)-N-hydroxy-5-methyl-4-(1-methylcyclobutane-1-carbonyl)-2,3,4,5-tetrahydrobenzo[f][1,4]oxazepine-8-carboxamide]
≤ 0.1 | C[C@H]1c2ccc(C(=O)NO)cc2OCCN1C(=O)C1(C)COC1 [(S)-N-hydroxy-5-methyl-4-(3-methyloxetane-3-carbonyl)-2,3,4,5-tetrahydrobenzo[f][1,4]oxazepine-8-carboxamide]
≤ 0.1 | C[C@H]1c2ccc(C(=O)NO)cc2OCCN1C(=O)C1(C)CCOCC1 [(S)-N-hydroxy-5-methyl-4-(4-methyltetrahydro-2H-pyran-4-carbonyl)-2,3,4,5-tetrahydrobenzo[f][1,4]oxazepine-8-carboxamide]
≤ 0.1 | C[C@H]1c2ccc(C(=O)NO)cc2OCCN1C(=O)[C@]1(C)CCCOC1 [(S)-N-hydroxy-5-methyl-4-((R)-3-methyltetrahydro-2H-pyran-3-carbonyl)-2,3,4,5-tetrahydrobenzo[f][1,4]oxazepine-8-carboxamide]
≤ 0.1 | C[C@H]1c2ccc(C(=O)NO)cc2OCCN1C(=O)[C@@H]1CCCOC1 [(S)-N-hydroxy-5-methyl-4-((R)-tetrahydro-2H-pyran-3-carbonyl)-2,3,4,5-tetrahydrobenzo[f][1,4]oxazepine-8-carboxamide]
≤ 0.1 | C[C@H]1c2ccc(C(=O)NO)cc2OCCN1C(=O)[C@@H]1CCOC1 [(S)-N-hydroxy-5-methyl-4-((R)-tetrahydrofuran-3-carbonyl)-2,3,4,5-tetrahydrobenzo[f][1,4]oxazepine-8-carboxamide]
≤ 0.1 | C[C@H]1c2ccc(C(=O)NO)cc2OCCN1C(=O)[C@@]1(C)CCCOC1 [(S)-N-hydroxy-5-methyl-4-((S)-3-methyltetrahydro-2H-pyran-3-carbonyl)-2,3,4,5-tetrahydrobenzo[f][1,4]oxazepine-8-carboxamide]
≤ 0.1 | C[C@H]1c2ccc(C(=O)NO)cc2OCCN1C(=O)[C@H]1CCCOC1 [(S)-N-hydroxy-5-methyl-4-((S)-tetrahydro-2H-pyran-3-carbonyl)-2,3,4,5-tetrahydrobenzo[f][1,4]oxazepine-8-carboxamide]
≤ 0.1 | C[C@H]1c2ccc(C(=O)NO)cc2OCCN1C(=O)[C@H]1CCOC1 [(S)-N-hydroxy-5-methyl-4-((S)-tetrahydrofuran-3-carbonyl)-2,3,4,5-tetrahydrobenzo[f][1,4]oxazepine-8-carboxamide]
≤ 0.1 | C[C@H]1c2ccc(C(=O)NO)cc2OCCN1C(=O)C1COC1 [(S)-N-hydroxy-5-methyl-4-(oxetane-3-carbonyl)-2,3,4,5-tetrahydrobenzo[f][1,4]oxazepine-8-carboxamide]
